Earlier results on three compounds are cited in PMC7674238 (Accounts of chemical research, 2020).

SMILES strings stand for the structures. Read-outs that look alike come from different tables or passages of the source. Bounds are passed on as bounds.

The subject of data set [1] is vancomycin-resistant S. aureus (VRSA) strain VRS-2. Conditions: for dose-dependent bactericidal effect, rank order (relative to 2 h baseline): n=5/dose.
A further data set relates to D-Ala-D-Lac. Conditions: D-Ala-D-Lac vs D-Ala-D-Ala.
Data set [2] deals with VanA VRE. Conditions: vancomycin-resistant organisms.
Data set [3] concerns VanA VRE. Conditions: 10 μM.
For data set [4], the system named is VanA VRE.
For data set [5] the following is noted: mice, iv.
For data set [6] the following is noted: mice.

For `CN[C@H](CC(C)C)C(=O)N[C@H]1C(=O)N[C@@H](CC(N)=O)C(=O)N[C@H]2C(=O)N[C@H]3C(=O)N[C@H](C(=O)N[C@H](C(=O)O)c4cc(O)cc(O)c4-c4cc3ccc4O)[C@H](O)c3ccc(c(Cl)c3)Oc3cc2cc(c3O[C@@H]2O[C@H](CO)[C@@H](O)[C@H](O)[C@H]2O[C@H]2C[C@](C)(N)[C@H](O)[C@H](C)O2)Oc2ccc(cc2Cl)[C@H]1O` [compound 1, vancomycin], in data set [1], the “dose-dependent bactericidal effect, rank order (relative to 2 h baseline)” value is reported as 32 > 26 ≥ 16 > linezolid > 1. Moreover, in the data set with D-Ala-D-Lac, the “loss in binding affinity between vancomycin and its target” value is 1000 fold. The “loss in antimicrobial activity (resistance)” value in the data set on VanA VRE [2] is on record as 1000 fold.
On to `CC(=O)NC[C@H]1CN(c2ccc(N3CCOCC3)c(F)c2)C(=O)O1` [linezolid], for which, in data set [1], the “dose-dependent bactericidal effect, rank order (relative to 2 h baseline)” value is 32 > 26 ≥ 16 > linezolid > 1.
In general, AUC refers to concentration integrated over time. As usually defined, the Cmax is the highest concentration seen after dosing. What is called Vd is a proportionality between amount in the body and measured concentration, not a real space. For the compound `CN[C@H](CC(C)C)C(=O)N[C@H]1C(=O)N[C@@H](CC(N)=O)C(=O)N[C@H]2C(=O)NC3C(=O)N[C@H](C(=O)N[C@H](C(=O)NCCC[N+](C)(C)C)c4cc(O)cc(O)c4-c4cc3ccc4O)[C@H](O)c3ccc(c(Cl)c3)Oc3cc2cc(c3OC2OC(CO)C(O)[C@H](O)[C@@H]2O[C@H]2CC(C)(NCc3ccc(-c4ccc(Cl)cc4)cc3)[C@H](O)[C@H](C)O2)Oc2ccc(cc2Cl)[C@H]1O` (stereo partly shown) [compound 26, C1-CBP-vancomycin], the “reduction in bacteria count” value in data set [1] (VanA VRSA, VRS2, without dosing optimization) is on record as around 3 log10. Also, in the data set on VanA VRE [3], the “induction of bacteria cell permeabilization” value is on record as “more significant”. For the same compound, the “resistance development on 50-day serial exposure” value in the data set on VanA VRE [4] is recorded as “much more muted changes in potency”. In data set [5] (10 mg/kg), the area under the curve (AUC) was 81.1 µg·h/mL, the CL was 2 mL/min/kg, the Cmax is 14100 ng/mL and the Vd is reported as 1.25 L/kg. In addition, in data set [5] (10 mg/kg), the t1/2 was 7.0 h. For the same compound, in data set [5] (50 mg/kg (MTD)), the AUC is 430 µg·h/mL, the CL was 2 mL/min/kg, the Cmax is 58900 ng/mL and the Vd is 1.04 L/kg. For the same compound, in data set [5] (50 mg/kg (MTD)), the t1/2 is 6.2 h. Also, the “Maximum tolerated dose (MTD)” value in data set [6] (iv) was at least 50 mg/kg. For the same compound, the “tolerability” value in data set [6] is reported as “well tolerated in mice”.
